Measured values: patent US20190247405A1, “TREATMENT OF SMA” (Hoffmann-La Roche Inc., priority 2016, published 2019)
Entries after “also recorded” stand apart in the source; their conditions may differ.

How the values were obtained:
[1] = system: patients aged 3-25 years with type 2 or non-ambulatory type 3 SMA; test: Randomized, double-blind, placebo-controlled Phase 2 study (NCT01302600) of olesoxime; type: in vivo, human; conditions: 100 mg/ml oral liquid suspension, 10 mg/kg per day
Protocol: A randomized double blind, placebo-controlled, phase 2 study on olesoxime (NTC01302600) was performed on SMA type II and type III patients aged 3 to 25 years.
A randomized, double-blind, placebo-controlled, Phase 2 study (NCT01302600) was performed in 22 secondary care centres in Belgium, France, Germany, Italy, Netherlands, Poland and the UK. Safety and efficacy of olesoxime (TRO19622/RG6083) were assessed in patients aged 3-25 years with type 2 or non-ambulatory type 3 SMA confirmed by weakness and hypotonia, genetic diagnosis, Motor Function Measure (MFM) domains 1 and 2 (D1+D2) relative score (percentage of the maximum sum)≥15% and Hammersmith Functional Motor Scale (HFMS) score at baseline≥3 (non-ambulant≤38). […]
MFM is a validated quantitative scale allowing measurement of the functional motor abilities of an individual affected by a neuromuscular disease, regardless of the diagnosis and the extent of motor deficiencies (Vuillerot et al. Arch Phys Med Rehabil 2013; 94(8): 1555-61). […] Each item is scored on a 4-point (0-3) Likert type scale, where each option contains a clear indication of the level to which the patient has achieved the functional task and higher scores reflect better functional ability. […]
A total score, in addition to the three dimensions, can be calculated, with all scores expressed as a percentage of the maximum possible sum of the item scores. […]

[2] = system: MFM D1+D2 score in SMA patients; test: Longitudinal kinetic-pharmacodynamic (KPD) exposure-response analysis and simulations on Phase 2 PK and MFM D1+D2 data; set-up: species or system human
Source text: The pharmacokinetics (PK) and efficacy data from the herewith referred clinical trial study were used to investigate the relationship between olesoxime pharmacokinetic exposure (i.e., average trough concentration Caverage) and the primary efficacy outcome (i.e.: MFM D1+D2 score). A longitudinal kinetic-pharmacodynamic (KPD) approach was applied [Jacqmin et al., 2007]. In the placebo group the progression of the disease over time was best described by a linear function (slope of −0.0201 unit/week with relative standard error of 27%). […] (Data on file).
Simulations were conducted by using this exposure-response function and its associated uncertainty.

[3] = system: SMNF7/F7; NSE-Cre mice (SMA transgenic mice); test: Survival and body weight in transgenic mouse model of SMA; type: in vivo; conditions: for mice still alive at 40 days: Conclusion section (vehicle 15%); for animals still alive after 40 days: Results section (vehicle 15%)
Source text: Deletion of the smn gene is lethal in mice (early embryonic lethality). Mutant mice with deletion of smn exon7 restricted to neurons (NSE-Cre; SMNF7/F7, referred to here as SMA transgenic mice) are viable and display a phenotype similar to that described in human patients suffering from the severe types of spinal muscular atrophy (Frugier T., Tiziano F D et al. Hum Mol Genet. 2000, 9, 849-858.)
A pre-clinical study has been carried out on transgenic mouse model of SMA in the severe modelSMN^F7/F7; NSE-Cre with Olesoxime to test for signs of possible efficacy to treats SMA patients.
Endpoint scores included survival (daily observation), body weight (animals were weighed 3 times/week).
Olesoxime (powder) was mixed with Cremophore EL (SIGMA C5135), absolute ethanol (CARLO ERBA RPE 414571) and DMSO (ALLDRICH 27685-5) ([…], respective % of the final volume). After complete dissolution, PBS (phosphate buffered saline) was added (85% of the final volume). Solutions were prepared in volumes sufficient for 3 days; vehicle placebo consisted in the same mixture of excipients without the active principle. Daily treatment (subcutaneous injections, 10 ml/kg) started from P21 to death. Effected mice were killed by cervical dislocation when they became unable to feed, according to ethical considerations or around 45 days for control mice. Experiments were performed blind.
“log Rank”, also called “Mantel-Haenszel” was the statistic test being used to compare the two survival curves. It is a type “Khi2” test that was already available in the library “survival” from R. software (http://lib.stat.cmu.edu/R/CRAN).
The test was applied simultaneously on the 3 groups of mice and for all five stages.
All the mice which died before day 26 were removed from the study. There were 8 in total.

CC(C)CCC[C@@H](C)[C@H]1CC[C@H]2[C@@H]3CCC4=CC(=NO)CC[C@]4(C)[C@H]3CC[C@]12C [olesoxime, Cholest-4-en-3-one oxime]
motor function ([1]; SMA type II and III patients): demonstrated potential to maintain motor function | tolerability ([1]; SMA type II and III patients aged 3 to 25 years): well tolerated | slope of linear exposure-response relationship (average trough concentration vs MFM D1+D2 score) ([2]; KPD model, relative standard error of 36%): 0.291 unit/ng/mL | plateau of effect in exposure-response relationship ([2]; at the dose of 10 mg): did not reach a plateau | mice still alive at 40 days ([3]; 10 mg/kg daily s.c.): 26% | animals still alive after 40 days ([3]; 10 mg/kg daily s.c.): 25% | mice still alive at 40 days ([3]; 30 mg/kg daily s.c.): 50% | animals still alive after 40 days ([3]; 30 mg/kg daily s.c.): 45% | life span / survival ([3]; 30 mg/kg/day s.c. from day 21 to death, log rank test p<0.05 vs vehicle): significant increase in life span; also recorded: longer life span; also recorded: Improves Survival | body weight ([3]; 10 or 30 mg/kg daily s.c. vs vehicle): no difference in body weight
